Measurements reported in publication PMC7555970, “Design, Synthesis and Biological Evaluation of Biphenylglyoxamide-Based Small Molecular Antimicrobial Peptide Mimics as Antibacterial Agents” (International Journal of Molecular Sciences, 2020).

Experiments:
[1] = tested on: established S. aureus biofilms; design: method as in PMID 27405275; conditions: 4× its MIC (32 μM) ref 52; cited from earlier work
[2] = tested on: S. aureus (SA38); assay: Minimum inhibitory concentration (MIC) assay against S. aureus; type: cell-based, Staphylococcus aureus; conditions: Staphylococcus aureus
Protocol: The antimicrobial activity of the compounds was evaluated by MIC assay using the procedure described by Clinical and Laboratory Standards Institute (CLSI). A single colony of bacteria was cultured overnight in trypticase soy broth (TSB; Oxoid, Basingstoke, UK) at 37 °C with shaking. The resulting bacterial culture was collected by centrifugation and resuspended in TSB twice. The optical density (OD) of the resulting culture was adjusted to OD660 = 0.1 in TSB (which is equivalent to 10^8 colony forming unit (CFU)/mL bacteria). It was further diluted to 10^6 CFU/mL in TSB. 100 µL of the bacterial solution was then added to wells of a 96-well plate (Costar; Sigma-Aldrich, St Louis, MO, USA) containing 100 µL serially diluted peptide mimic, with final concentration ranging from 1 to 250 µM. Wells with bacteria but no compound were used as negative control while wells with only media were set as blank. The plates were then wrapped with parafilm to prevent evaporation and incubated with shaking at 120 rpm at 37 °C for 18–24 h, and the data were recorded by measuring the OD value at 660 nm using a FLUOstar Omega (BMG Labtech, Mornington, Victoria, Australia) microplate reader. […] Each experiment was performed in triplicate and was repeated in three independent experiments.

[3] = tested on: S. aureus (SA38); conditions: previously synthesised N-sulfonylphenylglyoxamide iodide salts ref 43; cited from earlier work
[4] = tested on: P. aeruginosa (PA01); conditions: no antibacterial activity at the highest concentration tested (250 μM) ref 43; cited from earlier work
[5] = tested on: E. coli (K12); conditions: no antibacterial activity at the highest concentration tested (250 μM) ref 43; cited from earlier work
[6] = tested on: Gram-negative bacteria; design: method as in doi:10.1002/slct.201700336, PMID 28203673; conditions: previously reported ref 43, 44; cited from earlier work

## LL-37: a natural antimicrobial peptide that is being tested in phase II clinical trials (LLGDFFRKSKEKIGKEFKRIVQRIKDFLRNLVPRTES; Antibacterial peptide LL-37; UniProt P49913 134-170, looked up)
[1]
  disruption of mature S. aureus biofilms: approximately 40%

## CN(C)CCCNC(=O)C(=O)c1cc(-c2ccccc2)ccc1NC(=O)c1ccc2ccccc2c1 [Compound 25, N-(3-(2-((3-(Dimethylamino)propyl)amino)-2-oxoacetyl)-[1,1’-biphenyl]-4-yl)-2-naphthamide]
[2]
  MIC: > 250 µM
other
  melting point: 151.6 to 151.8 °C

## CCCCCCCCS(=O)(=O)Nc1ccc(Br)cc1C(=O)C(=O)NCCC[N+](C)(C)C [Compound 4b]
[3]
  MIC against S. aureus: 63 µM
[4]
  MIC against P. aeruginosa: > 250 µM
[5]
  MIC against E. coli: > 250 µM
[6]
  antibacterial activity against Gram-negative bacteria: no antibacterial activity
